Measured values taken from ChEMBL document CHEMBL1201862, “PubChem BioAssay data set” (2004).
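Cells were grown in 96-well plates and exposed to each compound for 48 hours at five concentrations; endpoints were interpolated linearly between bracketing concentrations, or set to the highest concentration if not reached. GI50 = concentration required for 50% inhibition of growth.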 Activity calls are given as the source filed them. No stated cut-off is given here; in the data, active = GI50 up to about 1.1 µM and inactive = higher.

How the values were obtained:
Test in all cases: NCI-60 cell line screen, 48 h
786-0 = system: 786-0
A498 = system: A498
A549 = system: A549
ACHN = system: ACHN
BT-549 = system: BT-549
CAKI-1 = system: CAKI-1
CCRF-CEM = system: CCRF-CEM
COLO 205 = system: COLO 205
DU-145 = system: DU-145
EKVX = system: EKVX
HCC 2998 = system: HCC 2998
HCT-116 = system: HCT-116
HCT-15 = system: HCT-15
HL-60 = system: HL-60
HOP-62 = system: HOP-62
HOP-92 = system: HOP-92
HT-29 = system: HT-29
Hs-578T = system: Hs-578T
IGROV-1 = system: IGROV-1
K562 = system: K562
KM12 = system: KM12
LOX IMVI = system: LOX IMVI
M14 = system: M14
MCF7 = system: MCF7
MDA-MB-231 = system: MDA-MB-231
MDA-MB-435 = system: MDA-MB-435
MDA-N = system: MDA-N
MOLT-4 = system: MOLT-4
Malme-3M = system: Malme-3M
NCI-H23 = system: NCI-H23
NCI-H460 = system: NCI-H460
NCI-H522 = system: NCI-H522
NCI/ADR-RES = system: NCI/ADR-RES
OVCAR-3 = system: OVCAR-3
OVCAR-5 = system: OVCAR-5
OVCAR-8 = system: OVCAR-8
PC-3 = system: PC-3
RPMI-8226 = system: RPMI-8226
RXF 393 = system: RXF 393
SF-268 = system: SF-268
SF-295 = system: SF-295
SF-539 = system: SF-539
SK-MEL-28 = system: SK-MEL-28
SK-MEL-2 = system: SK-MEL-2
SK-MEL-5 = system: SK-MEL-5
SK-OV-3 = system: SK-OV-3
SN12C = system: SN12C
SNB-19 = system: SNB-19
SNB-75 = system: SNB-75
SR = system: SR
SW-620 = system: SW-620
T47D = system: T47D
TK-10 = system: TK-10
U-251 = system: U-251
UACC-257 = system: UACC-257
UACC-62 = system: UACC-62
UO-31 = system: UO-31
NCI-H226 = system: NCI-H226
OVCAR-4 = system: OVCAR-4

O=C(COC(=O)c1ccccc1)c1ccc(Br)cc1
GI50 (786-0): 2.41 µM (inactive)
GI50 (A498): 15.8 µM (inactive)
GI50 (A549): 17.2 µM (inactive)
GI50 (ACHN): 19.9 µM (inactive)
GI50 (BT-549): 6.14 µM (inactive)
GI50 (CAKI-1): 1.47 µM (inactive)
GI50 (CCRF-CEM): 4.04 µM (inactive)
GI50 (COLO 205): 13.6 µM (inactive)
GI50 (DU-145): 19.5 µM (inactive)
GI50 (EKVX): 14.7 µM (inactive)
GI50 (HCC 2998): 13.3 µM (inactive)
GI50 (HCT-116): 8.95 µM (inactive)
GI50 (HCT-15): 3.35 µM
GI50 (HL-60): 6.64 µM (inactive)
GI50 (HOP-62): 18.5 µM (inactive)
GI50 (HOP-92): 14.6 µM (inactive)
GI50 (HT-29): 15.6 µM (inactive)
GI50 (Hs-578T): 14.3 µM (inactive)
GI50 (IGROV-1): 1 µM (active)
GI50 (K562): 4.4 µM (inactive)
GI50 (KM12): 15.7 µM (inactive)
GI50 (LOX IMVI): 3.06 µM (inactive)
GI50 (M14): 14.5 µM (inactive)
GI50 (MCF7): 5.53 µM (inactive)
GI50 (MDA-MB-231): 14.3 µM (inactive)
GI50 (MDA-MB-435): 6.78 µM (inactive)
GI50 (MDA-N): 4.71 µM (inactive)
GI50 (MOLT-4): 3.29 µM (inactive)
GI50 (Malme-3M): 12.2 µM (inactive)
GI50 (NCI-H23): 18.3 µM (inactive)
GI50 (NCI-H460): 18.5 µM (inactive)
GI50 (NCI-H522): 1.63 µM (inactive)
GI50 (NCI/ADR-RES): 21 µM (inactive)
GI50 (OVCAR-3): 12.9 µM (inactive)
GI50 (OVCAR-5): 10.7 µM (inactive)
GI50 (OVCAR-8): 12.5 µM (inactive)
GI50 (PC-3): 16.3 µM (inactive)
GI50 (RPMI-8226): 3.39 µM (inactive)
GI50 (RXF 393): 2.75 µM (inactive)
GI50 (SF-268): 19.6 µM (inactive)
GI50 (SF-295): 15.8 µM (inactive)
GI50 (SF-539): 15.1 µM (inactive)
GI50 (SK-MEL-28): 16.9 µM (inactive)
GI50 (SK-MEL-2): 12.2 µM (inactive)
GI50 (SK-MEL-5): 14.5 µM (inactive)
GI50 (SK-OV-3): 19.1 µM (inactive)
GI50 (SN12C): 10.4 µM (inactive)
GI50 (SNB-19): 16.9 µM (inactive)
GI50 (SNB-75): 16.4 µM (inactive)
GI50 (SR): 2.15 µM (inactive)
GI50 (SW-620): 6 µM (inactive)
GI50 (T47D): 9.06 µM (inactive)
GI50 (TK-10): 2.58 µM (inactive)
GI50 (U-251): 11 µM (inactive)
GI50 (UACC-257): 15.5 µM (inactive)
GI50 (UACC-62): 13 µM (inactive)
GI50 (UO-31): 1.89 µM (inactive)

C/C=C(/C)C(=O)O[C@H]1[C@H]2[C@@H]([C@@H](OC(C)=O)[C@H](C)C(=O)[C@@]34C[C@@H](C)C(=O)[C@]3(/C=C(\C)[C@H]1OC(C)=O)O4)C2(C)C
GI50 (786-0): 2.67 µM (inactive)
GI50 (A498): 4.75 µM (inactive)
GI50 (ACHN): 3.8 µM (inactive)
GI50 (BT-549): 2.84 µM (inactive)
GI50 (CAKI-1): 4.42 µM (inactive)
GI50 (CCRF-CEM): 0.463 µM (active)
GI50 (COLO 205): 2.6 µM (inactive)
GI50 (DU-145): 1.66 µM (inactive)
GI50 (EKVX): 3.83 µM (inactive)
GI50 (HCC 2998): 5.16 µM (inactive)
GI50 (HCT-116): 3.1 µM (inactive)
GI50 (HCT-15): 3 µM
GI50 (HL-60): 0.305 µM (active)
GI50 (HOP-62): 3.15 µM (inactive)
GI50 (HOP-92): 3.08 µM (inactive)
GI50 (Hs-578T): 5.64 µM (inactive)
GI50 (IGROV-1): 4.5 µM (inactive)
GI50 (K562): 2.6 µM (inactive)
GI50 (KM12): 5.58 µM (inactive)
GI50 (LOX IMVI): 3.09 µM (inactive)
GI50 (M14): 2.47 µM (inactive)
GI50 (MCF7): 3.26 µM (inactive)
GI50 (MDA-MB-231): 3.72 µM (inactive)
GI50 (MDA-MB-435): 2.99 µM (inactive)
GI50 (MDA-N): 1.27 µM (inactive)
GI50 (MOLT-4): 1.83 µM (inactive)
GI50 (NCI-H226): 3.51 µM (inactive)
GI50 (NCI-H23): 6.46 µM (inactive)
GI50 (NCI-H460): 1.31 µM (inactive)
GI50 (NCI-H522): 3.28 µM (inactive)
GI50 (NCI/ADR-RES): 4.12 µM (inactive)
GI50 (OVCAR-3): 3.95 µM (inactive)
GI50 (OVCAR-4): 4.9 µM (inactive)
GI50 (OVCAR-5): 3.94 µM (inactive)
GI50 (OVCAR-8): 3.48 µM (inactive)
GI50 (PC-3): 3.45 µM (inactive)
GI50 (RPMI-8226): 3.35 µM (inactive)
GI50 (RXF 393): 3.6 µM (inactive)
GI50 (SF-268): 5.98 µM (inactive)
GI50 (SF-295): 3.89 µM (inactive)
GI50 (SF-539): 3.1 µM (inactive)
GI50 (SK-MEL-2): 4.27 µM (inactive)
GI50 (SK-MEL-5): 3.64 µM (inactive)
GI50 (SK-OV-3): 16 µM (inactive)
GI50 (SN12C): 2.42 µM (inactive)
GI50 (SNB-19): 4.32 µM (inactive)
GI50 (SNB-75): 4.98 µM (inactive)
GI50 (SR): 2.54 µM (inactive)
GI50 (SW-620): 3.39 µM (inactive)
GI50 (T47D): 2.31 µM (inactive)
GI50 (TK-10): 3.45 µM (inactive)
GI50 (U-251): 5.7 µM (inactive)
GI50 (UACC-257): 4.09 µM (inactive)
GI50 (UACC-62): 3.35 µM (inactive)
GI50 (UO-31): 3.85 µM (inactive)

CCC1(O)C(=O)OCc2c1cc1n(c2=O)Cc2cc3cc(N)ccc3nc2-1 (stereo not drawn)
GI50 (786-0): < 0.01 µM (active)
GI50 (A498): 0.125 µM (active)
GI50 (A549): 0.0103 µM (active)
GI50 (ACHN): < 0.01 µM (active)
GI50 (BT-549): < 0.01 µM (active)
GI50 (CAKI-1): < 0.01 µM (active)
GI50 (CCRF-CEM): < 0.01 µM (active)
GI50 (COLO 205): 0.366 µM (active)
GI50 (DU-145): < 0.01 µM (active)
GI50 (EKVX): 0.855 µM (active)
GI50 (HCC 2998): 0.0345 µM (active)
GI50 (HCT-116): < 0.01 µM (active)
GI50 (HCT-15): 0.0721 µM
GI50 (HL-60): < 0.01 µM (active)
GI50 (HOP-62): < 0.01 µM (active)
GI50 (HOP-92): 0.0535 µM (active)
GI50 (HT-29): 0.0311 µM (active)
GI50 (Hs-578T): 1.42 µM (inactive)
GI50 (IGROV-1): 0.109 µM (active)
GI50 (K562): < 0.0127 µM (active)
GI50 (KM12): 0.0593 µM (active)
GI50 (LOX IMVI): < 0.01 µM (active)
GI50 (M14): < 0.01 µM (active)
GI50 (MCF7): < 0.01 µM (active)
GI50 (MDA-MB-231): 0.516 µM (active)
GI50 (MDA-MB-435): 0.0241 µM (active)
GI50 (MDA-N): 0.0232 µM (active)
GI50 (MOLT-4): < 0.01 µM (active)
GI50 (Malme-3M): 0.0299 µM (active)
GI50 (NCI-H226): < 0.0338 µM (active)
GI50 (NCI-H23): < 0.01 µM (active)
GI50 (NCI-H460): < 0.01 µM (active)
GI50 (NCI-H522): < 0.01 µM (active)
GI50 (NCI/ADR-RES): < 0.01 µM (active)
GI50 (OVCAR-3): 0.0466 µM (active)
GI50 (OVCAR-4): 0.257 µM (active)
GI50 (OVCAR-5): < 0.0271 µM (active)
GI50 (OVCAR-8): < 0.0128 µM (active)
GI50 (PC-3): 0.0702 µM (active)
GI50 (RPMI-8226): 0.0341 µM (active)
GI50 (SF-268): < 0.01 µM (active)
GI50 (SF-295): < 0.01 µM (active)
GI50 (SF-539): < 0.01 µM (active)
GI50 (SK-MEL-2): 0.0964 µM (active)
GI50 (SK-MEL-5): < 0.0136 µM (active)
GI50 (SK-OV-3): < 0.01 µM (active)
GI50 (SN12C): < 0.01 µM (active)
GI50 (SNB-19): < 0.01 µM (active)
GI50 (SNB-75): < 0.01 µM (active)
GI50 (SR): < 0.01 µM (active)
GI50 (SW-620): 0.0219 µM (active)
GI50 (T47D): < 0.01 µM (active)
GI50 (TK-10): 1.9 µM (inactive)
GI50 (U-251): < 0.01 µM (active)
GI50 (UACC-62): < 0.01 µM (active)
GI50 (UO-31): < 0.01 µM (active)
